Assay results: patent US10653693B2, “PRMT5 inhibitors and uses thereof” (Epizyme, Inc., priority 2014, dated 2020)

Columns and labels:
Z-138 xenograft model = experiment: 21 day mantle cell lymphoma xenograft study: TGI and tumor methyl mark; assay type: in vivo; details: Z-138 efficacy study; all dose groups tested; day 21
Experimental: Data presented in this example were determined after analysis of 21 day samples of mantle cell lymphoma tumors. Cmin PK samples were taken prior to the last dose on day 21. Tumors were excised, weighed and processed for methyl mark. Methyl mark reduction was measured in tumor samples and is shown as percent of vehicle control (POC). […] Tumor growth inhibition was determined using tumor volume reduction at day 21 expressed as a percent of POC. In vivo inhibition curves were also generated and IC50 values determined. Plasma levels from each group are averaged from 5 animals. […] The average body weight loss (BWL) in all groups was <6%. All doses tested show >50% TGI. […] The average BWL in all groups was <4%. The average BWL in all groups was <8%, except in the 100 mg/kg does group were 4 animals exceeded BWL of 15%.

Z138 = experiment: Cell cycle analysis (propidium iodide staining, FACS); assay type: cell-based, Human; details: 3 days
Experimental: Cells were seeded in 6-well tissue culture dishes in a volume of 3 mL IMDM+10% horse serum (supplemented with 0.5 μg/mL puromycin for transduced cell lines). Cells were treated with DMSO, 10 nM Formula C, or 200 nM Formula C for 3 days. Cells were harvested by centrifuging at 2,000 RPM for 5 minutes, washing with PBS, washing with citrate buffer, then aspirating excess citrate buffer to leave approximately 50 μL remaining above pellet. Pellets were frozen at −80° C. until ready to process.
Pellets were propidium iodide-stained for FACS using the Becton Dickinson CycleTEST PLUS kit (cat. #340242). Solutions A, B, and C of the kit were thawed and then kept on ice. Cell pellets were thawed rapidly at 37° C. and pipetted up and down to resuspend in 50 μL of citrate buffer.
Approximately one quarter of the cell pellet volume was transferred to a fresh Eppendorf tube. 250 μL of solution A was added to each sample and then inverted 7 to 10 times. Samples were placed on a shaker at 150 RPM for 10 minutes at room temperature. Samples were on ice when not shaking. 250 μL of solution B and 250 μL of solution C were added to each sample in the same fashion. […]
(§1) Samples were processed by FACS on a Becton Dickinson FACSCalibur machine. The percentage of cells in each cell cycle stage was determined using the cell cycle function on the gated single cell population with FlowJo V10 software.

Z138 cells = experiment: Western analysis (sDMA, cleaved Caspase-3, cleaved PARP); assay type: cell-based, Human; details: 1 μM, 1-5 days
Experimental: Z138 cells were seeded at approximately […] in IMDM+10% horse serum media. Cells were treated with 1 μM of compound for 1, 2, 3, 4, or 5 days. Cell pellets were collected by centrifuging at 500×g for 5 minutes, washing once with PBS, and freezing at −80° C. until ready to be processed.
Protein lysates were prepared by adding RIPA buffer (Sigma R0278) containing protease inhibitor (about 5× the volume of the cell pellet, or roughly 250 μL) to each cell pellet and pipetting to resuspend. Samples were sonicated with 10×1 second pulses then centrifuged at maximum speed (13,300 RPM) for 6 minutes. Supernatant (200 μL) was transferred to a fresh Eppendorf tube, and pellets were discarded. Protein concentration was determined using a Pierce BCA Protein Assay kit.
Protein gel samples were prepared by combining 20 μg of lysate with appropriate volumes of Life Technologies NuPage Sample Reducing Agent, LDS Sample Buffer, and RIPA buffer. Gel samples were heated for 5-10 minutes at 100° C. in a heat block. A 15-well Invitrogen 4-12% Bis-Tris NuPAGE-SDS gel was loaded with a volume of 19 μL per well, and run in MES SDS buffer at 150V for about 1 hour or until maximal separation of bands was achieved.
Gels were transferred onto nitrocellulose membranes using an Invitrogen iBlot system. […]

[1] = system: Z-138 cells overexpressing full length (FL) MDM4; experiment: Cell cycle analysis of transduced Z138 cell lines; assay type: cell-based, Human; details: 50 nM or 500 nM; 2, 3, or 4 days
Experimental: 1×10^6 Z138 cells were seeded in a 6-well tissue culture dish in a volume of 3 mL IMDM+10% horse serum per well. Lentiviruses (MDM4 or EGFP in pLEX vector) were prepared as previously described or purchased from Santa Cruz Biotechnology (cat. # sc-29435-V and sc-108080 for p53 shRNA or scrambled shRNA lentiviruses, respectively). Lentiviral particles were added to seeded cells at […] and supplemented with polybrene at 8 μg/mL. 6-well plates were sealed with Parafilm and spun at 1000×g for 90 minutes at 37° C. for lentiviral treatment. The contents of each well were then collected into separate 15 mL conical tubes and spun at 1000×g for 5 minutes. Supernatant (containing lentivirus and polybrene) was discarded and the cell pellet was resuspended in 3 mL of IMDM+10% horse serum. […]
Transduction efficiency was evaluated for EGFP-transduced cells using fluorescence microscopy. […]
Cells were seeded at 250,000 cells/well in 6-well tissue culture dishes in a volume of 3 mL IMDM+10% horse serum (supplemented with 0.5 μg/mL puromycin for transduced cell lines). […] Pellets were frozen at −80° C. until ready to process. […]
as §1

SMILES	methyl mark in tumors (sDMA Western blot) (Z-138 xenograft model)	cell cycle effect (Z138; 10 nM)	cell cycle effect (Z138; 200 nM)	cell death pathways (cleaved Caspase-3 and cleaved PARP) by Western (Z138 cells)	inhibition of PRMT5 (sDMA, symmetric dimethylarginine) by Western (Z138 cells)	sensitivity of cells overexpressing full length (FL) MDM4 to PRMT5 inhibition [1]
CC(=O)N1CCC(Nc2cc(C(=O)NC[C@H](O)CN3CCc4ccccc4C3)ccn2)CC1 [Formula B]	completely removed	–	–	–	–	–
O=C(NC[C@H](O)CN1CCc2ccccc2C1)c1ccnc(NC2CCC2)c1 [Formula C]	–	G1 arrest	cell death	induction of cell death pathways	time-dependent inhibition	less sensitive
